Where two headings read alike, the source gives them in different places.
How the values were obtained:
[1] = test system: hypoxic cells; design: method as in Adams et al., 1984a; conditions: estimated at plasma level of 2-4 µg ml-1, ref Adams et al., 1984a; cited from earlier work
[2] = test system: other in vitro cells; design: method as in Stratford et al., 1986; conditions: ref Stratford et al., 1986; cited from earlier work
[3] = test system: 9L cells; test: In vitro colony formation of 9L cells treated at defined oxygen concentrations; format: cell-based, rat
From the text: Br 1 acr(91,6,4448?McilnPesLd,19 Pharmacokinetics and cytotoxicity of RSU-1069 in subcutaneous 9L tumours under oxic and hypoxic conditions K-H. Wong',*, C.J. Koch2, C. A. Wallen' & K.T. Wheeler' 'Experimental Radiation Oncology, Department of Radiology, Bowman Gray School of Medicine, Winston-Salem, North Carolina 27103; and 2Department of Radiation Oncology, University of Pennsylvania, Philadelphia, Pennsylvania 19104, USA. Summary The acute toxicity, pharmacokinetics and hypoxic cytotoxicity of RSU-1069 were investigated using the subcutaneous (sc) rat 9L tumour model. The pharmacokinetics were studied after i.p. injection of RSU-1069 (20mgkg-' or 100mgkg-'). […] The 2-nitroimidazoles, originally designed as electron affinic radiosensitisers, have been reported to selectively kill hypoxic cells (Adams et al., 1980). This hypoxic cytotoxicity appears to be related to the anaerobic bioreductive metabolism of the drugs that releases reactive cytotoxic metabolites (Clark et al., 1980; Brown, 1982). By adding an alkylating group to the side chain of a 2-nitroimidazole, Adams et al. (1984a,b) postulated that a more efficient chemopotentiator and killer of hypoxic cells could be made without the compound losing its ability to sensitise hypoxic cells to ionising radiation. RSU-1069 was one of the compounds synthesised to achieve this goal. […]

[4] = test system: KHT and RIF tumours; design: method as in Bremner et al. (1990); conditions: tumours clamped 60 min after 80 mg kg-1, ref Bremner et al. (1990); cited from earlier work
[5] = test system: sc 9L tumour cells; design: AUC30: unit not given beside the values
From the text: (§1) Br 1 acr(91,6,4448?McilnPesLd,19 Pharmacokinetics and cytotoxicity of RSU-1069 in subcutaneous 9L tumours under oxic and hypoxic conditions K-H. Wong',*, C.J. Koch2, C. A. Wallen' & K.T. Wheeler' 'Experimental Radiation Oncology, Department of Radiology, Bowman Gray School of Medicine, Winston-Salem, North Carolina 27103; and 2Department of Radiation Oncology, University of Pennsylvania, Philadelphia, Pennsylvania 19104, USA. Summary The acute toxicity, pharmacokinetics and hypoxic cytotoxicity of RSU-1069 were investigated using the subcutaneous (sc) rat 9L tumour model. The pharmacokinetics were studied after i.p. injection of RSU-1069 (20mgkg-' or 100mgkg-'). […] The 2-nitroimidazoles, originally designed as electron affinic radiosensitisers, have been reported to selectively kill hypoxic cells (Adams et al., 1980). This hypoxic cytotoxicity appears to be related to the anaerobic bioreductive metabolism of the drugs that releases reactive cytotoxic metabolites (Clark et al., 1980; Brown, 1982). By adding an alkylating group to the side chain of a 2-nitroimidazole, Adams et al. (1984a,b) postulated that a more efficient chemopotentiator and killer of hypoxic cells could be made without the compound losing its ability to sensitise hypoxic cells to ionising radiation. RSU-1069 was one of the compounds synthesised to achieve this goal. RSU-1069 has an aziridine group attached via a side chain to a 2-nitroimidazole. […] Although the ability to kill cells in vivo has been studied (Adams et al., 1984a,b; Chaplin et al., 1986; Olive et al., 1987; Cole et al., 1989; Siemann, 1989) the presence of both oxic and hypoxic cells in these tumours has made it difficult to determine if the relative efficiency of RSU-1069 for killing oxic and hypoxic cells in vivo is similar to that reported in vitro. In this report, we used the subcutaneous (sc) 9L tumour model to study the relative ability of RSU-1069 to kill oxic and hypoxic tumours cells in vivo.

[6] = ref Horwich et al., 1986, cited from earlier work
[7] = KHT fibrosarcoma, ref Walton & Workman, 1988; cited from earlier work
[8] = From the text: as §1
[9] = B16 and HX 118 melanomas, ref Deacon et al., 1986; Walling et al., 1989; cited from earlier work
[10] = mice, i.p. doses of 50 and 100 mg kg-1, ref Walton & Workman (1988); cited from earlier work
[11] = design: method as in Wong et al., 1989; 1990; conditions: sc 9L tumours, ref Wong et al., 1989; 1990; cited from earlier work
[12] = test system: sc 9L tumour cells; design: method as in Wong et al., 1989; 1990; conditions: Table I, clamped sc 9L tumours, ref Wong et al., 1989; 1990; cited from earlier work
[13] = 20 mg kg-1 i.p., unclamped tumours
[14] = 100 mg kg-1 i.p., unclamped tumours
[15] = both doses (20 and 100 mg kg-1)

Q: Which radiosensitising enhancement ratio [1] does the source give for `O=[N+]([O-])c1nccn1CC(O)CN1CC1` (stereo not shown) [RSU-1069] here?
A: The radiosensitising enhancement ratio was 1.2.

Q: And the SER in vitro [2]?
A: The SER in vitro was ≤ 100.

Q: And the SER in vitro ([3]; 2.1% O2 vs less than 7.5 x 10(-3)% O2)?
A: Its SER in vitro is “approximately 50”.

Q: And the SER in vitro ([3]; 21% O2 vs less than 7.5 x 10(-3)% O2)?
A: Its SER in vitro is “approximately 100”.

Q: What about the “increase in time for tumours to reach four times their treatment size” value [4] of the same compound?
A: Its value is 3-4 fold.

Q: What about the cell survival ([5]; 20 mg kg-1, clamped tumours) of the same compound?
A: The cell survival was “approximately 25%”.

Q: What about the cell survival ([5]; 20 mg kg-1, unclamped tumours) of the same compound?
A: The cell survival was ~100%.

Q: What about the “cell-kill kinetics as a function of clamping time” value ([5]; 50 mg kg-1, clamped for various times) of the same compound?
A: Its value is “little additional cell kill was achieved after 40 min of clamping”.

Q: And the surviving fraction ([5]; 50 mg kg-1, hypoxic (clamped 2 h))?
A: The surviving fraction was ~0.001.

Q: What about the surviving fraction ([5]; 50 mg kg-1, oxic (unclamped)) of the same compound?
A: Its surviving fraction is “about 0.6”.

Q: What about the AUC30 ([5]; rat, in vivo) of the same compound?
A: The AUC30 was 0.15.

Q: And the “efficiency for killing hypoxic sc 9L tumour cells in situ relative to misonidazole or SR2508” value ([5]; rat, in vivo, sc)?
A: Its value is 300-1000 fold.

Q: What about the “sensitiser enhancement ratio (SER), hypoxic vs oxic sc 9L cells in vivo” value ([5]; rat, in vivo, sc) of the same compound?
A: Its value is 4.8.

Q: And the peak plasma level ([6]; clinical trial, after a 70 mg kg-1 dose (so in the source))?
A: Its peak plasma level is 2 to 4 µg/mL.

Q: What about the “dose limited by nongenotoxic side-effects such as emesis” value ([6]; phase I clinical trial) of the same compound?
A: The value was “less than 70 mg m-2”.

Q: What about the tumour/plasma ratio [7] of the same compound?
A: Its tumour/plasma ratio is 0.2-0.4.

Q: And the maximum tumour/plasma ratio ([8]; 20 mg kg-1, in 60 min)?
A: Its maximum tumour/plasma ratio is “six”.

Q: And the “plasma elimination t1/2” value ([8]; 20 mg kg-1 i.p.)?
A: The value was 47.8 ± 6.3 min.

Q: What about the “time to peak plasma concentration” value ([8]; 20 mg kg-1 i.p.) of the same compound?
A: Its value is “about 10 min”.

Q: What about the “time to peak tumour concentration” value ([8]; 20 mg kg-1 i.p.) of the same compound?
A: The value was 10 min.

Q: What about the peak plasma concentration ([8]; 20 mg kg-1 i.p., rat) of the same compound?
A: The peak plasma concentration was 3 micrograms ml-1.

Q: And the peak tumour concentration [8, 13]?
A: Its peak tumour concentration is 4 micrograms g-1.

Q: What about the “tumour elimination t1/2” value [8, 13] of the same compound?
A: Its value is 41.9 ± 6.1 min.

Q: And the “time to return to unclamped tumour concentration after release of the clamp” value ([8]; 100 mg kg-1)?
A: The value was “about 60 min”.

Q: And the “tumour/plasma ratio in clamped tumours” value ([8]; 100 mg kg-1, about 90 min after clamping)?
A: The value was 0.1.

Q: And the “drug concentration in clamped tumours” value ([8]; 100 mg kg-1, beyond 120 min after clamping)?
A: The value was “undetectable”.

Q: And the peak tumour/plasma ratio ([8]; 100 mg kg-1, unclamped, in about 45 min)?
A: The peak tumour/plasma ratio was “exceeded four”.

Q: What about the “time to peak plasma concentration” value ([8]; 100 mg kg-1 i.p.) of the same compound?
A: Its value is “approximately 25 min”.

Q: What about the peak plasma concentration ([8]; 100 mg kg-1 i.p., rat) of the same compound?
A: Its peak plasma concentration is 40 micrograms ml-1.

Q: What about the “tumour elimination t1/2” value ([8]; 100 mg kg-1 i.p., tumour clamped 30 min after administration) of the same compound?
A: Its value is 10.9 ± 1.4 min.

Q: What about the “plasma elimination t1/2” value ([8]; 100 mg kg-1 i.p., tumour unclamped) of the same compound?
A: The value was 39.3 ± 11.1 min.

Q: What about the peak tumour concentration [8, 14] of the same compound?
A: Its peak tumour concentration is 50 micrograms g-1.

Q: What about the “time to peak tumour concentration” value [8, 14] of the same compound?
A: The value was 30 min.

Q: What about the “tumour elimination t1/2” value [8, 14] of the same compound?
A: The value was 36.1 ± 9.6 min.

Q: What about the “constant unclamped tumour/plasma ratio after the maximum” value [8, 15] of the same compound?
A: Its value is “about 2”.

Q: What about the “maximum unclamped tumour/plasma ratio” value [8, 15] of the same compound?
A: Its value is 4-6.

Q: And the “elimination from clamped sc 9L tumours faster than MISO or SR-2508” value ([8]; rat, in vivo)?
A: The value was “four”.

Q: What about the “peak plasma concentration at 100 mg kg-1 relative to 20 mg kg-1” value ([8]; rat, in vivo) of the same compound?
A: The value was “about 13 times”.

Q: What about the “peak tumour concentration at 100 mg kg-1 relative to 20 mg kg-1” value ([8]; rat, in vivo) of the same compound?
A: The value was “about 13 times”.

Q: What about the tumour/plasma ratio [9] of the same compound?
A: The tumour/plasma ratio was 3.7-4.

Q: What about the “difference in the volume of distribution” value [10] of the same compound?
A: The value was 2 fold.

Q: What about the “increase in the elimination t1/2” value [10] of the same compound?
A: Its value is 37%.

Q: Which “time to return to unclamped tumour level after release of the clamp” value [11] does the source give for `O=C(Cn1ccnc1[N+](=O)[O-])NCCO` [SR-2508] here?
A: The value was “about 90 min”.

Q: What about the AUC30 [12] of the same compound?
A: The AUC30 was 748 µg·h/mL.

Q: Which “time to return to unclamped tumour level after release of the clamp” value [11] does the source give for `COCC(O)Cn1ccnc1[N+](=O)[O-]` (stereo not shown) [MISO, misonidazole] here?
A: Its value is “about 45 min”.

Q: And the AUC30 [12]?
A: The AUC30 was 877 µg·h/mL.

From PMC1972348, “Pharmacokinetics and cytotoxicity of RSU-1069 in subcutaneous 9L tumours under oxic and hypoxic conditions” (British Journal of Cancer, 1991)
